Experimental data as given in US20260042764A1, “COMPOSITIONS AND METHODS FOR INHIBITION OF KRAS” (TheRas, Inc., priority 2022, published 2026).

Assays:
[1] = target: T1, Avi-KRAS WT (1-169) GppNHp/RAF1 RBD-3xFLAG (52-151) (Homo sapiens, UniProt P01116); test: Raf1-KRAS WT-GppNHP disruption HTRF assay (Biological Example 1); assay type: binding
T1 construct: Avi-KRAS WT (1-169)
Outline: (§1)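 Protein mix, 1 h RT, 700 rpm; reagent mix, 1 h RT, 700 rpm; HTRF read. Buffer Tris pH 7.5/NaCl/MgCl2/BSA/Tween, 10% DMSO. Output % activity, DMSO = 100%.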

[2] = target: T2, Avi-KRAS G12V (1-169) GppNHp/RAF1 RBD-3xFLAG (52-151) (Homo sapiens, UniProt P01116, G12V); test: Raf1-KRAS G12V-GppNHP disruption HTRF assay (Biological Example 1); assay type: binding
T2 construct: Avi-KRAS G12V (1-169)
T2 sequence (P01116 1-169 isoform P01116-2 G12V): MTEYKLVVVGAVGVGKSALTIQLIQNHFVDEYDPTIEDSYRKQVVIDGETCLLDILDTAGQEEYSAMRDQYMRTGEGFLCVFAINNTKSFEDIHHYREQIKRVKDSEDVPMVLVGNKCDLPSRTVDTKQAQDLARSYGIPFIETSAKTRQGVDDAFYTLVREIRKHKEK
Outline: as §1

[3] = target: T3, Avi-KRAS G12R (1-169) GppNHp/RAF1 RBD-3xFLAG (52-151) (Homo sapiens, UniProt P01116, G12R); test: Raf1-KRAS G12R-GppNHP disruption HTRF assay (Biological Example 1); assay type: binding
T3 construct: Avi-KRAS G12R (1-169)
T3 sequence (P01116 1-169 isoform P01116-2 G12R): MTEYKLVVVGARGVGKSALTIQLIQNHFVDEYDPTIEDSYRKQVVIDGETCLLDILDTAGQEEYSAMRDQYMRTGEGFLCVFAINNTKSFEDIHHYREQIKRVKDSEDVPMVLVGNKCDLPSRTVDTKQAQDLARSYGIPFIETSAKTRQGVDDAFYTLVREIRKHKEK
Outline: as §1

GP2d cells (KRAS G12D) = test: Cell-based pERK HTRF assay in GP2d cell (Biological Example 2); details: GP2d, GP2d (KRAS G12D) cells, pERK HTRF
Outline: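 GP2d (KRAS G12D) cells were plated in DMEM/10% FBS and treated the next day for 60 min with compounds. Dosing used 9-point half-log series starting at 1 μM or 100 nM in 0.25% DMSO. Lysates were read by HTRF pERK (d2/Eu cryptate antibodies) after 4–24 h at room temperature, with excitation at 320 nm and emission at 615 nm.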

[4] = target: T4, Avi-KRAS G12D (1-169) GppNHp/RAF1 RBD-3xFLAG (52-151) (Homo sapiens, UniProt P01116, G12D); test: Raf1-KRAS G12D-GppNHP disruption HTRF assay (Biological Example 1); assay type: binding
T4 construct: Avi-KRAS G12D (1-169)
T4 sequence (P01116 1-169 isoform P01116-2 G12D): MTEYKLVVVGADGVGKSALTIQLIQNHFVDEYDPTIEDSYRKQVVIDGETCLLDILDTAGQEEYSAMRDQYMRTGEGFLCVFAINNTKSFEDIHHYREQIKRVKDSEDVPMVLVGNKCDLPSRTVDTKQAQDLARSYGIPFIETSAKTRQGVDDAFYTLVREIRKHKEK
Outline: as §1

SW620 cells (KRAS G12V) = test: Cell-based pERK HTRF assay in SW620 cell (Biological Example 4); details: Homo sapiens, SW-620, SW620 (KRAS G12V) cells, pERK HTRF
Outline: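 SW620 seeded in RPMI/10% FBS, next day dosed 4 h (top 1 μM, half-log, 9 pts, 0.25% DMSO). Lysed, pERK by d2/Eu cryptate HTRF, 4–24 h RT, 615 nm read.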

[5] = KRAS WT, GppNHp-loaded, Table 11
[6] = KRAS G12V, GppNHp-loaded, Table 11
[7] = KRAS G12R, GppNHp-loaded, Table 11
[8] = KRAS G12D, GppNHp-loaded, Table 11
[9] = KRAS WT, GppNHp-loaded, class symbols
[10] = KRAS G12V, GppNHp-loaded, class symbols
[11] = KRAS G12R, GppNHp-loaded, class symbols
[12] = KRAS G12D, GppNHp-loaded, class symbols

T1 sequence (P01116 1-169 isoform P01116-2): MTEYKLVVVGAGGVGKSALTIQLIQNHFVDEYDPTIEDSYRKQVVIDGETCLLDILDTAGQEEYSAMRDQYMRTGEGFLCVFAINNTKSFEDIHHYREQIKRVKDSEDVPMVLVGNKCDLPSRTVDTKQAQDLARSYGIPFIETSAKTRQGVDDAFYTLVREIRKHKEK

IC50 [1, 5] | IC50 [2, 6] | IC50 [3, 7] | IC50 (GP2d cells (KRAS G12D)) | IC50 [4, 8] | IC50 (SW620 cells (KRAS G12V)) | IC50 ([1]; KRAS WT-GppNHp/RAF1 RBD HTRF) | IC50 ([2]; KRAS G12V-GppNHp/RAF1 RBD HTRF) | IC50 ([3]; KRAS G12R-GppNHp/RAF1 RBD HTRF) | IC50 ([4]; KRAS G12D-GppNHp/RAF1 RBD HTRF) | IC50 [1, 9] | IC50 [2, 10] | IC50 [3, 11] | IC50 (GP2d cells (KRAS G12D); class symbols) | IC50 [4, 12] | IC50 (SW620 cells (KRAS G12V); class symbols) | SMILES
– | – | – | < 100 nM | – | 100 to 1000 nM | 100 to 1000 nM | 1000 to 10000 nM | 1000 to 10000 nM | 100 to 1000 nM | – | – | – | – | – | – | C[C@@H]1[C@H](N(C)c2nc(OC[C@@]34CCCN3C[C@H](F)C4)nc3c(F)c(-c4ccc(F)c5sc(N)c(C#N)c45)c(Cl)cc23)CCN1C(=O)C(F)F [Compound 408]
– | – | – | – | – | – | – | – | – | – | < 100 nM | < 100 nM | < 100 nM | < 100 nM | < 100 nM | < 100 nM | CCN(c1nc(OC[C@@]23CCCN2C[C@H](F)C3)nc2c(F)c(-c3ccc(F)c4sc(N)c(C#N)c34)c(C(F)(F)F)cc12)[C@H]1CCN(C(=O)OC2CCOCC2)C1 (atropisomer, axis not shown) [Compound 684]
100 to 1000 nM | 100 to 1000 nM | 100 to 1000 nM | < 100 nM | 100 to 1000 nM | < 100 nM | – | – | – | – | – | – | – | – | – | – | C[C@@H]1COC[C@H](C)N1c1nc(OC[C@@]23CCCN2C[C@H](F)C3)nc2c(F)c(-c3ccc(F)c4sc(N)c(C#N)c34)c(C(F)(F)F)cc12 [Compound 201]
– | – | – | < 100 nM | – | < 100 nM | 1000 to 10000 nM | 1000 to 10000 nM | 1000 to 10000 nM | 1000 to 10000 nM | – | – | – | – | – | – | CC(=O)N1CCC2[C@H]1CCN2c1nc(OC[C@@]23CCCN2C[C@H](F)C3)nc2c(F)c(-c3ccc(F)c4sc(N)c(C#N)c34)c(C(F)(F)F)cc12 (stereo partly drawn) [Compound 307]
– | – | – | < 100 nM | – | < 100 nM | 100 to 1000 nM | 100 to 1000 nM | < 100 nM | < 100 nM | – | – | – | – | – | – | CCN(c1nc(OC[C@@]23CCCN2C[C@H](F)C3)nc2c(F)c(-c3ccc(F)c4sc(N)c(C#N)c34)c(C(F)(F)F)cc12)[C@@H]1CCN(C(=O)N(C)C)[C@@H]1C [Compound 488]
– | – | – | < 100 nM | – | < 100 nM | < 100 nM | < 100 nM | < 100 nM | < 100 nM | – | – | – | – | – | – | CCN(c1nc(OC[C@@]23CCCN2C[C@H](F)C3)nc2c(F)c(-c3ccc(F)c4sc(N)c(C#N)c34)c(C(F)(F)F)cc12)[C@H]1CCN(C(=O)C2CC2(F)F)C1 (stereo partly drawn) [Compound 548]

Second part, the molecule before the results:

SMILES | IC50 [1, 5] | IC50 [2, 6] | IC50 [3, 7] | IC50 (GP2d cells (KRAS G12D)) | IC50 [4, 8] | IC50 (SW620 cells (KRAS G12V)) | IC50 ([1]; KRAS WT-GppNHp/RAF1 RBD HTRF) | IC50 ([2]; KRAS G12V-GppNHp/RAF1 RBD HTRF) | IC50 ([3]; KRAS G12R-GppNHp/RAF1 RBD HTRF) | IC50 ([4]; KRAS G12D-GppNHp/RAF1 RBD HTRF) | IC50 [1, 9] | IC50 [2, 10] | IC50 [3, 11] | IC50 (GP2d cells (KRAS G12D); class symbols) | IC50 [4, 12] | IC50 (SW620 cells (KRAS G12V); class symbols)
CC(=O)N1C[C@H](F)[C@@H](N(C)c2nc(OC[C@@]34CCCN3C[C@H](F)C4)nc3c(F)c(-c4ccc(F)c5sc(N)c(C#N)c45)c(C(F)(F)F)cc23)C1 [Compound 273] | 100 to 1000 nM | 100 to 1000 nM | 100 to 1000 nM | < 100 nM | 100 to 1000 nM | 100 to 1000 nM | – | – | – | – | – | – | – | – | – | –
CCN(c1nc(OC[C@@]23CCCN2C[C@H](F)C3)nc2c(F)c(-c3ccc(F)c4sc(N)c(C#N)c34)c(C(F)(F)F)cc12)[C@H]1CCN(C(=O)N2CCOCC2)C1 (atropisomer, axis not shown) [Compound 553] | – | – | – | < 100 nM | – | < 100 nM | < 100 nM | < 100 nM | < 100 nM | < 100 nM | – | – | – | – | – | –
CN1C[C@@H](N(C)c2nc(OC[C@@]34CCCN3C[C@H](F)C4)nc3c(F)c(-c4ccc(F)c5sc(N)c(C#N)c45)c(C(F)(F)F)cc23)CCC1=O [Compound 478] | – | – | – | < 100 nM | – | < 100 nM | 100 to 1000 nM | 1000 to 10000 nM | 1000 to 10000 nM | 100 to 1000 nM | – | – | – | – | – | –
CCN(c1nc(OC[C@@]23CCCN2C[C@H](F)C3)nc2c(F)c(-c3ccc(F)c4sc(N)c(C#N)c34)c(C(F)(F)F)cc12)[C@H]1C[C@@H]2CCC(=O)N2C1 (atropisomer, axis not shown) [Compound 628] | – | – | – | – | – | – | – | – | – | – | < 100 nM | < 100 nM | < 100 nM | < 100 nM | < 100 nM | < 100 nM
Cc1nc(OC[C@@]23CCCN2C[C@H](F)C3)nc2c(F)c(-c3ccc(F)c4sc(N)c(C#N)c34)c(C(F)(F)F)cc12 [Compound 318, 2-amino-7-fluoro-4-[8-fluoro-2-[[(2R,8S)-2-fluoro-1,2,3,5,6,7-hexahydropyrrolizin-8-yl]methoxy]-4-methyl-6-(trifluoromethyl)quinazolin-7-yl]benzothiophene-3-carbonitrile] | – | – | – | < 100 nM | – | 100 to 1000 nM | 1000 to 10000 nM | 1000 to 10000 nM | 100 to 1000 nM | 100 to 1000 nM | – | – | – | – | – | –
